In patent US12108719B2, “Methods for creating doubled haploid plants” (Monsanto Technology LLC, priority 2015, dated 2024):

Tests used:
[1] = system: DH0 seedlings of Germplasm A; assay: Doubling efficiency of DH0 plants after co-dominant ear induction treatment (Example 2); format: in vivo, maize
Excerpt: An F1 hybrid-derived haploid induction population derived from female inbred maize plant Germplasm A was germinated in soil and tended in standard greenhouse maize growing conditions for approximately seven days. Seedlings were then subjected to a bulk colchicine-based chromosome doubling treatment as described above. Following treatment, seedlings were transplanted into pots and tended in a greenhouse at standard greenhouse maize growing conditions to recover.
Twenty-nine days after the colchicine doubling treatment, 77 of the DH0 seedlings were subjected to a co-dominant ear induction treatment comprising the addition of 60 mL of 2.5% PBZ (v/v) in water, which was poured into the soil surrounding the roots of each plant. The seedlings were then tended in standard greenhouse maize growing conditions until they flowered, at which time each plant that produced pollen was self-pollinated. After approximately 3-4 weeks, ears were harvested and the kernels (DH1 seeds) that formed on the treated DH0 plants were counted to determine doubling efficiencies.
Doubling efficiencies (DE) were calculated under four different constraints, depending on the minimum number of kernels an ear had to produce in order to even be included in the calculation. DE04 represents the portion of all the doubled DH0 plants that produced a total of at least four seeds when all ears were considered. DE20 represents the portion of all the doubled DH0 plants that produced a total of at least 20 kernels when all ears were considered. Similarly, DE30 represents the portion of doubled DH0 plants that produced a total of at least 30 kernels when all ears were considered, and DE50 represents the portion of doubled DH0 plants that produced a total of at least 50 kernels when all ears were considered.
Furthermore, the above doubling efficiencies were calculated once by considering only the kernels that formed on the primary ear of each plant (Ear1), once by considering only the kernels that formed on the primary and secondary ear of each plant (Ear2), once by considering only the kernels that formed on the primary, secondary, and tertiary ear of each plant (Ear3), and finally by considering all the kernels that formed on all the ears of each plant (Earall).

[2] = system: maize inbred lines Germplasm A and LH244; assay: Co-dominant ear induction in diploid inbred lines (Example 5); format: in vivo
Method: Seeds of maize inbred lines Germplasm A and LH244 were planted in soil, germinated, and then transplanted to 10-inch pots after approximately one week, one seedling per pot. The plants were subjected to a co-dominant ear induction treatment at the V8 stage comprising drenching the soil surrounding the roots of each plant with 50 mL of a 2.5% PBZ solution (v/v; 0.4% of active ingredient). The plants were tended in a greenhouse until sexual maturity, then they were self-pollinated. When seed set had completed, the number of co-dominant ears, and the total number of kernels, produced by each plant were counted. Control plants for each germplasm were processed in the same way as the treated groups, except that the control plants were not subjected to the co-dominant ear induction treatment.

[3] = system: Diploid maize plants of a common inbred line; assay: Tiller induction in diploids (Example 6); format: in vivo
Method: Diploid maize plants of a common inbred line were subjected to a tiller induction treatment comprising drenching the soil surrounding the roots with 100 mL of a 2.5% PBZ solution (v/v; 0.4% of active ingredient) approximately one week after germination and then allowed to grow to sexual maturity in 10-inch pots a greenhouse. A control group of plants were grown under identical circumstances except that they were not subjected to the tiller induction treatment.
Three treatment groups were then formed from the tillers: tillers of the “Co-hab” treatment were allowed to continue growing in the same pot with the mother plant; those of the “-Mother” treatment also remained in the same pot, but the mother plant was removed from the pot; and those of the “Transplanted” treatment group were transplanted from the pot containing the mother plant into separate 10-inch pots, one plant per pot. Any naturally-occurring tillers produced by the control group were allowed to grow in the same pot as the mother plant, similar to the co-hab treatment. All plants were allowed to grow to sexual maturity and self-pollinated when silks and tassels formed. When seed set was complete, the average total number of seeds produced by all plants deriving from the same mother plant seed were counted and plotted in FIG. 3.

[4] = system: haploid mother plant; assay: Tiller induction with doubled haploid mother plant (Example 7); format: in vivo, maize
Method: A haploid mother plant will be subjected to doubling treatment and thereafter planted in a pot, the soil surrounding the roots drenched with 100 mL of 2.5% of paclobutrazol, and then tended standard maize green house growing conditions for several days. […] One of the resulting daughter tiller plants can be separated from the mother plant, transplanted into a separate pot, and grown via standard green house management procedures to eventually recover a daughter plant with normal haploid morphology.

[5] = Ear1 (primary ear only), 60 mL 2.5% PBZ 29 days after colchicine doubling
[6] = Ear2 (primary and secondary ear), 60 mL 2.5% PBZ after colchicine doubling
[7] = Ear3 (primary, secondary and tertiary ear), 60 mL 2.5% PBZ after colchicine doubling
[8] = EarAll (all ears), 60 mL 2.5% PBZ after colchicine doubling
[9] = 100 mL 2.5% PBZ soil drench approx. one week after germination

CC(C)(C)[C@H](O)[C@H](Cc1ccc(Cl)cc1)n1cncn1 (relative stereo) [PBZ, (2S,3S)-1-(4-chlorophenyl)-4,4-dimethyl-2-(1,2,4-triazol-1-yl) pentan-3-ol]
DE04 [1, 5]: 71% | DE20 [1, 5]: 37% | DE30 [1, 5]: 26% | DE50 [1, 5]: 23% | DE04 [1, 6]: 76% | DE20 [1, 6]: 59% | DE30 [1, 6]: 47% | DE50 [1, 6]: 36% | DE04 [1, 7]: 76% | DE20 [1, 7]: 65% | DE30 [1, 7]: 58% | DE50 [1, 7]: 50% | DE04 [1, 8]: 76% | DE20 [1, 8]: 68% | DE30 [1, 8]: 58% | DE50 [1, 8]: 52% | Ave. Ears Per Plant ([2]; Treated, Germplasm A diploid, 50 mL 2.5% PBZ soil drench at V8): 8 | response of average total kernels per plant and average ears per plant vs control ([2]; both germplasms (Germplasm A, LH244)): more than doubling | morphology of mother plants [3, 9]: shortened internodes | tiller production by mother plants [3, 9]: induced the mother plants to produce tillers | average total seeds per plant vs control group ([3]; Transplanted treatment group (tillers transplanted to separate pots)): more than twice the number of seeds as the control group | DH1 seeds yielded by daughter tiller plant when selfed ([4]; daughter tiller separated and transplanted): several dozen DH1 seeds | morphology and tiller production of mother plant ([4]; haploid mother plant after doubling treatment, 100 mL of 2.5% paclobutrazol soil drench): shortened internodes and increased tiller production
